EC50 and inhibition data for eight compounds are collected here from patent US12421205B2, “GLP-1 receptor agonist” (HYUNDAI PHARM CO., LTD., priority 2019, dated 2025).

The target of one series is T1, human GLP-1 receptor (Homo sapiens, UniProt P43220).
T1 construct: host or cells: CHO-K1
The series is described as follows: cAMP activity test (cAMP dynamic HTRF kit) in CHO-K1/GLP-1 receptor-expressing cells. The note with it: cAMP activity, CHO-K1/GLP-1 receptor-expressing cells; read-out: EC50. The series is classed as cell-based. A digest of the protocol:
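Cells in HBSS with 0.1% BSA, 0.5 mM IBMX and 5 mM HEPES, then lysed; cAMP-d2 and anti-cAMP cryptate added for 3 h. HTRF read-out, where FRET signal is inversely proportional to intracellular cAMP.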
On the technique in general: In TR-FRET formats the signal depends on donor and acceptor labels being close together.

A further series deals with T2, hERG (Homo sapiens, UniProt Q12809).
T2 construct: purchased Invitrogen PV5365
T2 sequence (Q12809 whole entry): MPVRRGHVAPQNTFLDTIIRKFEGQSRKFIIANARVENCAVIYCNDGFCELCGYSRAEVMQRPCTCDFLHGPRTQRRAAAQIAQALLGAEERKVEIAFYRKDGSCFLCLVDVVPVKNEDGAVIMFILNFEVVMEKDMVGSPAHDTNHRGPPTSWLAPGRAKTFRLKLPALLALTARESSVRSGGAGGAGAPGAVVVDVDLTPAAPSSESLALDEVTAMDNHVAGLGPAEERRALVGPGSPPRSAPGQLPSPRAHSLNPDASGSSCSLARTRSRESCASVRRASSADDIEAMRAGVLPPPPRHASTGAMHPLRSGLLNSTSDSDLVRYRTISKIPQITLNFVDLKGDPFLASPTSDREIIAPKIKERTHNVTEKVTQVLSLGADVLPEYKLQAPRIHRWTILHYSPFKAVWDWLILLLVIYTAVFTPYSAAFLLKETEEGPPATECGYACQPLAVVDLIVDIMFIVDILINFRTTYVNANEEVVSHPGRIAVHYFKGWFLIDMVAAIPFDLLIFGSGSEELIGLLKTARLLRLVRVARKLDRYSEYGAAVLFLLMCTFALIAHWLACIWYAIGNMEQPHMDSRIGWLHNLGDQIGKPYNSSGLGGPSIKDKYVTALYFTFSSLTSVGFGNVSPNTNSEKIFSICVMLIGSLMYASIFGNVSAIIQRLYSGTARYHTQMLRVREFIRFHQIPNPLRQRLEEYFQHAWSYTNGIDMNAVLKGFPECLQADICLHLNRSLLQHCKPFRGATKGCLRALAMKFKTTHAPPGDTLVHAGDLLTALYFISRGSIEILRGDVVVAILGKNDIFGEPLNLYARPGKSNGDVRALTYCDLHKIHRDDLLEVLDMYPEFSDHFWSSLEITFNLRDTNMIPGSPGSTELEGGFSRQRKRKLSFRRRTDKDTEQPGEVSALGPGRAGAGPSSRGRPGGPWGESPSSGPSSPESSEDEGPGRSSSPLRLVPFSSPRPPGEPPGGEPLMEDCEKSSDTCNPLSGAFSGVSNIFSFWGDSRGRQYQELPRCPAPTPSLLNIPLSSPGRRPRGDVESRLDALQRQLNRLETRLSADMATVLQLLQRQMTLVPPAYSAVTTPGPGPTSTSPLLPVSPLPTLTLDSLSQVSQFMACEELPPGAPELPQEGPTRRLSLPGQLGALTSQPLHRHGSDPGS
Description: hERG inhibition test (Predictor hERG Fluorescence Polarization assay kit). The note with it: probe kit Tracer (fluorescent hERG ligand), hERG % inhibition at 10 uM, relative to E-4031 and solvent control. The series is classed as binding. A digest of the protocol: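 Competitive fluorescence-polarization binding of fluorescent tracer to hERG membrane preparation, 2.5 h at room temperature, mP read at 531/579 nm. % inhibition at 10 uM test compound, scaled between solvent control (0%) and E-4031 (100%).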

T1 sequence (P43220 24-463): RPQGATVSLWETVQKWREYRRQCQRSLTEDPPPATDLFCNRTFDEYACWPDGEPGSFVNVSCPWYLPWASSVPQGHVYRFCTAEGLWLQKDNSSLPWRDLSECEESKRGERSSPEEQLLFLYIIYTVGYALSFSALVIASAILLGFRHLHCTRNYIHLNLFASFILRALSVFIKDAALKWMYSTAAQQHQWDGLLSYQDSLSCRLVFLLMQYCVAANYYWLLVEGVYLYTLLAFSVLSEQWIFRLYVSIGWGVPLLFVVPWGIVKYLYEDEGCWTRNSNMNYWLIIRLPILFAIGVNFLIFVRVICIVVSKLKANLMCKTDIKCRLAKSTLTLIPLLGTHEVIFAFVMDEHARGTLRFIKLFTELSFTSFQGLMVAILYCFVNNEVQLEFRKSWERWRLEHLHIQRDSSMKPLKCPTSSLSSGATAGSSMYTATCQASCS

With `N#Cc1ccc(COc2cc(-c3ccc(Cc4nc5ccc(C(=O)O)cc5n4CC4CCCO4)cc3F)ccc2F)c(F)c1` (stereo not shown) [Example 93, 2-((3′-(4-cyano-2-fluorobenzyloxy)-2,4′-difluorobiphenyl-4-yl)methyl)-1-((tetrahydrofuran-2-yl)methyl)-1H-benzo[d]imidazole-6-carboxylic acid], the EC50 on human GLP-1 receptor was 1100 nM. The inhibition at 2.5 h, 10 µM at hERG is 8.9%.
For `N#Cc1ccc(COc2cccc(-c3ccc(Cc4nc5ccc(C(=O)O)cc5n4Cc4ccco4)cc3)n2)c(F)c1` [Example 18, 2-(4-(6-(4-cyano-2-fluorobenzyloxy)pyridin-2-yl)benzyl)-1-(furan-2-ylmethyl)-1H-benzo[d]imidazole-6-carboxylic acid], the EC50 at human GLP-1 receptor worked out at 110 nM. Moreover, the inhibition at 2.5 h, 10 µM at hERG is 7.37%.
`COCCn1c(Cc2ccc(-c3cccc(OCc4ccc(C#N)cc4F)n3)cc2F)nc2ccc(C(=O)O)cc21` [Example 25, 2-(4-(6-(4-cyano-2-fluorobenzyloxy)pyridin-2-yl)-2-fluorobenzyl)-1-(2-methoxyethyl)-1H-benzo[d]imidazole-6-carboxylic acid]: the EC50 at human GLP-1 receptor amounted to 43 nM. Also, at hERG, the inhibition at 2.5 h, 10 µM is 18.9%.
Take `N#Cc1ccc(COc2cccc(-c3ccc(Cc4nc5ccc(C(=O)O)cc5n4CC4CCCO4)cc3)c2)c(F)c1` (stereo not shown) [Example 8, 2-((3′-(4-cyano-2-fluorobenzyloxy)biphenyl-4-yl)methyl)-1-((tetrahydrofuran-2-yl)methyl)-1H-benzo[d]imidazole-6-carboxylic acid]: the EC50 on human GLP-1 receptor came out at 120 nM. In addition, on hERG, the inhibition at 2.5 h, 10 µM is 4.01%.
Take `Cc1cc(Cc2nc3ccc(C(=O)O)cc3n2Cc2ccco2)ccc1-c1cccc(OCc2ccc(C#N)cc2F)c1` [Example 29, 2-((3′-(4-cyano-2-fluorobenzyloxy)-2-methylbiphenyl-4-yl)methyl)-1-(furan-2-ylmethyl)-1H-benzo[d]imidazole-6-carboxylic acid]: the EC50 at human GLP-1 receptor stood at 900 nM. Besides, at hERG, the inhibition at 2.5 h, 10 µM was -0.75%.
As to `Cc1cc(Cc2nc3ccc(C(=O)O)cc3n2Cc2ccco2)ccc1-c1cccc(OCc2ccc(C#N)cc2F)n1` [Example 30, 2-(4-(6-(4-cyano-2-fluorobenzyloxy)pyridin-2-yl)-3-methylbenzyl)-1-(furan-2-ylmethyl)-1H-benzo[d]imidazole-6-carboxylic acid], the EC50 on human GLP-1 receptor worked out at 460 nM. Also, at hERG, the inhibition at 2.5 h, 10 µM was 0.33%.
Taken in the same sequence, the figures for `N#Cc1ccc(COc2cccc(-c3ccc(Cc4nc5ccc(C(=O)O)cc5n4Cc4ccco4)c(F)c3)c2)c(F)c1` [Example 28, 2-((3′-(4-cyano-2-fluorobenzyloxy)-3-fluorobiphenyl-4-yl)methyl)-1-(furan-2-ylmethyl)-1H-benzo[d]imidazole-6-carboxylic acid] were 130 nM and 0.52%.
For `COc1cccc(COc2cccc(-c3ccc(Cc4nc5ccc(C(=O)O)cc5n4CC4CCCO4)c(F)c3)n2)c1` (stereo not shown) [Example 81, 2-(2-fluoro-4-(6-(3-methoxybenzyloxy)pyridin-2-yl)benzyl)-1-((tetrahydrofuran-2-yl)methyl)-1H-benzo[d]imidazole-6-carboxylic acid], the EC50 on human GLP-1 receptor is 210 nM. Moreover, the inhibition at 2.5 h, 10 µM on hERG was -43.5%.

For orientation: EC50 means the midpoint of the concentration-response curve. By inhibition is commonly meant the change of the read-out against control, counted positive when it falls.
